{"source": "patent US12247019B2", "about": "(Centaurus Therapeutics, priority 2018, dated 2025)", "key": {"Des1 [1]": {"target": "T1, Des1 (Homo sapiens, UniProt O15121)", "T1 sequence (O15121 1-323)": "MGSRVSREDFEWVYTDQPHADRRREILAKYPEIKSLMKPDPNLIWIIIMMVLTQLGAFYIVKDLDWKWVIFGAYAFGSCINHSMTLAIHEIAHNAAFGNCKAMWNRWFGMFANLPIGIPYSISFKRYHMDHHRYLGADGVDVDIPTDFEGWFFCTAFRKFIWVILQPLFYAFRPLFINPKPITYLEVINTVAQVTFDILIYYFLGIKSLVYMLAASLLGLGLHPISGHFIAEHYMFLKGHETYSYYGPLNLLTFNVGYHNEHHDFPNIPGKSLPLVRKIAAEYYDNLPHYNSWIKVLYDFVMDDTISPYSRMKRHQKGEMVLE", "assay": "Jurkat T cell measurement of conversion of dihydroceramide to ceramide (Des1 activity, LC-MS/MS of NBD-C6-ceramide)", "format": "cell-based", "parameters": "Jurkat clone E6-1 cells were grown and then seeded at 10^6 cells/mL in a 96-well plate; endogenous in cells; host or cells: Jurkat clone E6-1", "settings": "0.5 uM compound; Jurkat clone E6-1 cells, 10 μM NBD-C6-dihydroceramide, 3 hours at 37° C.; read-out: Des1 % Inhib (0.5 uM)", "method": "Jurkat T Cell Measurement of Conversion of Dihydroceramide to Ceramide\nJurkat clone E6-1 cells were grown and then seeded at 10^6 cells/mL in a 96-well plate (400 μL in each well. The cells were administered 100 μL of cell culture media containing 50-μM NBD-C6-dihydroceramide (Des1 substrate), affording a final concentration of substrate of 10 μM. The cells were incubated with substrate at 4° C. for 30 minutes. Following the incubation at 4° C., the cell suspension was centrifuged at 1200 rpm for 3 minutes, and the cell pellet is resuspended in 400 μL of fresh media containing various concentrations of either fenretinide (known Des1 inhibitor control compound) or test article. The final concentrations of control compound and test compounds were tested in a range from 0-10 μM. The cells and compounds were incubated at 37° C. for 3 hours. Following the 3-hour incubation, the plate was centrifuged at 2500 g for 3 minutes at 4° C., followed by collection and transfer of 200 μL of the supernatant to a new 96-well plate with 300 μL of methanol an containing appropriate internal standards for liquid chromatography/tandem mass spectroscopy (LC/MS/MS) analysis (internal standard: 500 nM labetalol and 100 nM alprazolam). The samples were vortexed for 2 minutes followed by centrifugation at 3,220 g for 20 minutes. […]"}, "Des1 [2]": {"target": "T1, Des1", "assay": "Jurkat T cell measurement of conversion of dihydroceramide to ceramide (Des1 activity, LC-MS/MS of NBD-C6-ceramide)", "format": "cell-based", "parameters": "endogenous in cells; host or cells: Jurkat clone E6-1", "settings": "Jurkat clone E6-1 cells; read-out: half-maximal inhibitory concentration (IC50)", "summary_of_the_method": "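Jurkat E6-1 cells (10^6 cells/mL) loaded with NBD-C6-dihydroceramide (10 μM final) for 30 min at 4 °C, then exposed to compound (0–10 μM) for 3 h at 37 °C. NBD-C6-ceramide in supernatant quantified by LC-MS/MS; activity expressed as reduction versus vehicle, in duplicate.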"}, "[3]": {"tested_on": "insulin-stimulated Akt phosphorylation in C2C12 myotubes", "assay": "C2C12 myotube assay of insulin-stimulated phosphorylation of Akt", "format": "cell-based", "settings": "0.75 mM BSA-conjugated palmitate 16 hours, insulin 100 nM 10 minutes; read-out: half-maximal effective concentration (EC50) for increasing insulin-stimulated Akt phosphorylation in the presence of palmitate", "method": "C2C12 Myotube Assay of Insulin-Stimulated Phosphorylation of Akt:\nC2C12 myotubes are treated with 0.75 mM BSA-conjugated palmitate for 16 hours in the presence or absence of 7 non-zero concentrations of fenretinide (Des1 inhibitor control compound) or various test articles, followed by a 10-minute stimulation with insulin (100 nM). Cells are subsequently harvested and boiled in reducing SDS sample buffer and subjected to SDS-PAGE followed by detection of phosphorylated Akt, total Akt, and a suitable loading control (e.g. actin or GAPDH) by western blot using fluorescently-conjugated secondary antibodies. Band intensities are quantitated by an Odyssey imaging system (Li—COR), but could also be performed using HRP-conjugated secondary antibodies/enhanced chemiluminescence or by colorimetric readout.\nMoreover, while currently contemplated for SDS-PAGE/immunoblot format, this assay could be adapted to ELISA or in-cell western (immunocytochemistry) formats for higher throughput testing of compounds. An increase of 30% compared to vehicle control (0 μM test article) is indicative of an active compound, and an increase of 50% compared to control is preferred. […] Des1 inhibitors disclosed herein are expected to be effective in this assay."}, "CFTR-KO mice": {"tested_on": "CFTR-KO mice", "settings": "Guilbault et al. 2008, 2009, cited from earlier work"}}}
{"smiles": "O=S(=O)(Nc1ccc(O)cn1)N1CCN(c2ccc(F)cc2)CC1", "note": "[Example 72]", "values": [{"measurement": "inhibition at 0.5 µM", "setting": "Des1 [1]", "value": 50.2, "unit": "%"}]}
{"smiles": "CC1=C(/C=C/C(C)=C/C=C/C(C)=C/C(=O)Nc2ccc(O)cc2)C(C)(C)CCC1", "note": "[fenretinide]", "values": [{"measurement": "IC50", "setting": "Des1 [2]", "value": "100 to 250", "unit": "nM"}, {"measurement": "EC50", "setting": "[3]", "value": 600, "unit": "nM"}, {"measurement": "susceptibility to infection with Pseudomonas aeruginosa", "setting": "CFTR-KO mice; CFTR-KO mice", "value": "reduce susceptibility to infection"}, {"measurement": "ratio of lung arachidonic acid (AA) to docosahexaenoic acid (DHA)", "setting": "CFTR-KO mice; lungs of CFTR-KO mice", "value": "normalize this ratio"}]}
